From the NIST ThermoML archive (doi:10.1007/s10765-007-0223-x)
± gives the expanded uncertainty stated by the source.

Test: xn = mol fraction of the nth substance listed
Settings: 101 kPa, Liquid; for speed of sound: Single path-length method

COC(C)(C)C [2-methoxy-2-methylpropane] + c1ccccc1
Settings	mass density, 295.65 K [kg/m3]	mass density, 298.15 K [kg/m3]	mass density, 300.65 K [kg/m3]	mass density, 303.15 K [kg/m3]	speed of sound, 298.15 K [m/s]	speed of sound, 300.65 K [m/s]	speed of sound, 303.15 K [m/s]	speed of sound, 305.65 K [m/s]
x1 = 0.052	–	864.111 ± 0.41	861.451 ± 0.42	858.785 ± 0.42	1281.3 ± 2.1	1269.7 ± 2.1	1258 ± 2.1	1246.5 ± 2.1
x1 = 0.111	–	853.986 ± 0.42	851.345 ± 0.43	848.697 ± 0.43	1262.6 ± 2.1	1251 ± 2.1	1239.5 ± 2.1	1228 ± 2.1
x1 = 0.202	–	838.954 ± 0.44	836.329 ± 0.45	833.698 ± 0.45	1234.8 ± 2.1	1223.2 ± 2.1	1211.7 ± 2.1	1200.3 ± 2.1
x1 = 0.303	–	823.323 ± 0.46	820.71 ± 0.47	818.089 ± 0.47	1205.8 ± 2.1	1194.3 ± 2.1	1182.8 ± 2.1	1171.4 ± 2.1
x1 = 0.397	812.151 ± 0.47	809.552 ± 0.48	806.945 ± 0.48	804.33 ± 0.49	1179.8 ± 2.1	1168.3 ± 2.1	1156.9 ± 2.1	1145.5 ± 2.1
x1 = 0.5	797.75 ± 0.49	795.155 ± 0.5	792.548 ± 0.5	789.936 ± 0.5	1152.5 ± 2.1	1141 ± 2.1	1129.6 ± 2.1	1118.2 ± 2.1
x1 = 0.596	784.966 ± 0.51	782.366 ± 0.51	779.76 ± 0.52	777.144 ± 0.52	1128.2 ± 2.1	1116.7 ± 2.1	1105.2 ± 2.1	1093.8 ± 2.1
x1 = 0.698	771.959 ± 0.53	769.356 ± 0.53	766.742 ± 0.53	764.119 ± 0.54	1103 ± 2.1	1091.5 ± 2.1	1080 ± 2.1	1068.6 ± 2.1
x1 = 0.791	760.733 ± 0.54	758.126 ± 0.55	755.506 ± 0.55	752.877 ± 0.55	1081.5 ± 2.1	1070 ± 2.1	1058.5 ± 2.1	–
x1 = 0.902	747.886 ± 0.56	745.267 ± 0.56	742.638 ± 0.57	739.994 ± 0.57	1056.2 ± 2.1	1044.7 ± 2.1	1033.2 ± 2.1	–
x1 = 0.95	742.485 ± 0.57	739.86 ± 0.57	737.224 ± 0.57	734.576 ± 0.58	1045.5 ± 2.1	1033.8 ± 2.1	1022.3 ± 2.1	–
x1 = 1	737.036 ± 0.56	734.406 ± 0.57	731.766 ± 0.57	729.112 ± 0.58	1036.9 ± 2.1	1025.4 ± 2.1	1013.9 ± 2.1	–
